Source: US5498775A, “Polyanionic benzylglycosides as inhibitors of smooth muscle cell proliferation” (American Home Products Corporation, priority 1994, dated 1996)

Test system: human and porcine aortic smooth muscle cells and human aortic endothelial cells
Experiment: Cytotoxicity, MTT assay
Assay type: cell-based
Details: up to 250 μM, 24 h at 37° C., without serum
From the text: The ability of the compounds of the present invention to inhibit smooth muscle cell proliferation and modulate endothelial cell growth was established using isolated aortic cells obtained from commercial sources or, for certain species, prepared in-house. Cell lines used in this study include human and porcine aortic smooth muscle cells and human aortic endothelial cells. Human aortic cell lines were obtained from Clonetics Corporation (San Diego).
Briefly, cells were again grown in 24 well plates to 70-80% confluency and, as before, serum deprived for 24-48 h prior to initiation of the experimental protocol. To insure that the MTT assay monitored toxicity rather than proliferation, cells were incubated with 250 μM drug in fresh medium without serum for 24 h at 37° C. in a humidified CO2 incubator. Upon completion of the compound treatment, MTT (3-[4,5-dimethylthiazol-2-yl]-2,5-diphenyltetrazolium bromide) indicator dye was added for 4 h at 37° C. Cells were then lysed and aliquots from each well were transferred to a 96 well plate for analysis. Absorbance at 570 nm wavelength with a reference wavelength of 630 nm was recorded using an ELISA plate reader. Results are reported as percent viable using no drug (100% viable) and pre-solubilization (0% viable) standards.

Cc1ccc(CO[C@@H]2O[C@H](COS(=O)(=O)O)[C@@H](O[C@H]3O[C@H](COS(=O)(=O)O)[C@@H](OS(=O)(=O)O)[C@H](OS(=O)(=O)O)[C@H]3OS(=O)(=O)O)[C@H](OS(=O)(=O)O)[C@H]2OS(=O)(=O)O)cc1NC(=O)c1cccc(NC(=O)Nc2cccc(C(=O)Nc3cc(CO[C@@H]4O[C@H](COS(=O)(=O)O)[C@@H](O[C@H]5O[C@H](COS(=O)(=O)O)[C@@H](OS(=O)(=O)O)[C@H](OS(=O)(=O)O)[C@H]5OS(=O)(=O)O)[C@H](OS(=O)(=O)O)[C@H]4OS(=O)(=O)O)ccc3C)c2)c1 [EXAMPLE 26, STEP 5]
cytotoxicity (MTT): No toxicity was observed up to 250 μM
